Source: PubChem BioAssay (NCI)
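1) Cells in 96-well plates. 2) Compound, 48 h, 5 concentrations. 3) Linear interpolation between surrounding doses. 4) Unreached endpoint = highest concentration. GI50 is the concentration that inhibits growth by half. At the TGI there is no net growth.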

Key:
Test in all cases: NCI tumour cell line growth inhibition, 48 h
[1] = system: 786-0 renal
[2] = system: A498 renal
[3] = system: A549 NSCLC
[4] = system: ACHN renal
[5] = system: BT-549 breast
[6] = system: CAKI-1 renal
[7] = system: CCRF-CEM leukemia
[8] = system: COLO 205 colon
[9] = system: DU-145 prostate
[10] = system: EKVX NSCLC
[11] = system: HCC-2998 colon
[12] = system: HCT-116 colon
[13] = system: HCT-15 colon
[14] = system: HL-60(TB) leukemia
[15] = system: HOP-62 NSCLC
[16] = system: HOP-92 NSCLC
[17] = system: HS 578T breast
[18] = system: HT29 colon
[19] = system: IGROV1 ovarian
[20] = system: K-562 leukemia
[21] = system: KM12 colon
[22] = system: LOX IMVI melanoma
[23] = system: M14 melanoma
[24] = system: MALME-3M melanoma
[25] = system: MCF7 breast
[26] = system: MDA-MB-231 breast
[27] = system: MDA-MB-435
[28] = system: MOLT-4 leukemia
[29] = system: NCI-H226 lung
[30] = system: NCI-H23 lung
[31] = system: NCI-H460 lung
[32] = system: NCI-H522 lung
[33] = system: NCI/ADR-RES ovarian
[34] = system: OVCAR-4 ovarian
[35] = system: OVCAR-5 ovarian
[36] = system: OVCAR-8 ovarian
[37] = system: PC-3 prostate
[38] = system: RPMI-8226 leukemia
[39] = system: RXF 393 renal
[40] = system: SF-268 CNS
[41] = system: SF-295 CNS
[42] = system: SF-539 CNS
[43] = system: SK-MEL-2 melanoma
[44] = system: SK-MEL-28 melanoma
[45] = system: SK-MEL-5 melanoma
[46] = system: SK-OV-3 ovarian
[47] = system: SN12C renal
[48] = system: SNB-19 CNS
[49] = system: SNB-75 CNS
[50] = system: SR leukemia
[51] = system: SW-620 colon
[52] = system: T-47D breast
[53] = system: TK-10 renal
[54] = system: U251 CNS
[55] = system: UACC-257 melanoma
[56] = system: UACC-62 melanoma
[57] = system: UO-31 renal

O=C(O)c1ccc(-n2c(=O)n(-c3cccc(C(F)(F)F)c3)c(=O)c3cc(-c4ccc(F)cc4F)ccc32)cc1 gave a GI50 [1] of 1.83 µM, a TGI [1] of 3.63 µM and a GI50 [2] of 0.524 µM. The TGI [2] was 1.87 µM, the GI50 [3] was 2.96 µM and the TGI [3] was 13.5 µM. For the same molecule, the GI50 [4] was 2.67 µM, the TGI [4] was 10.6 µM and the GI50 [5] was 1.54 µM. The TGI [5] was 3.11 µM, the GI50 [6] was 2.11 µM and the TGI [6] was 6.96 µM. For the same molecule, the GI50 [7] was 3.32 µM, the TGI [7] was 20.9 µM and the GI50 [8] was 2.85 µM. It also gave a TGI [8] of 7.41 µM, a GI50 [9] of 3.37 µM and a TGI [9] of 14.2 µM. The GI50 [10] was 2.53 µM, the TGI [10] was 8.53 µM and the GI50 [11] was 3.03 µM. It also gave a TGI [11] of 9.71 µM, a GI50 [12] of 1.1 µM and a TGI [12] of 2.39 µM. The GI50 [13] was 1.04 µM, the TGI [13] was 3 µM and the GI50 [14] was 0.323 µM. It also gave a TGI [14] of 11.1 µM, a GI50 [15] of 2.04 µM and a TGI [15] of 4.66 µM. For the same molecule, the GI50 [16] was 0.525 µM, the TGI [16] was 3.54 µM and the GI50 [17] was 2.12 µM. For the same molecule, the TGI [17] was 6.98 µM, the GI50 [18] was 3.58 µM and the TGI [18] was 13.7 µM. It also gave a GI50 [19] of 2.91 µM, a TGI [19] of 20.5 µM and a GI50 [20] of 0.335 µM. The TGI [20] was 7.74 µM, the GI50 [21] was 2.59 µM and the TGI [21] was 7.49 µM. For the same molecule, the GI50 [22] was 1.73 µM, the TGI [22] was 3.53 µM and the GI50 [23] was 1.58 µM. It also gave a TGI [23] of 3.72 µM, a GI50 [24] of 1.78 µM and a TGI [24] of 5.42 µM. For the same molecule, the GI50 [25] was 2 µM, the TGI [25] was 9.29 µM and the GI50 [26] was 2.18 µM. It also gave a TGI [26] of 6.71 µM, a GI50 [27] of 2.31 µM and a TGI [27] of 7.62 µM. It also gave a GI50 [28] of 1.44 µM, a TGI [28] of 6.16 µM and a GI50 [29] of 1.72 µM. It also gave a TGI [29] of 4.8 µM, a GI50 [30] of 1.56 µM and a TGI [30] of 5.88 µM. It also gave a GI50 [31] of 1.58 µM, a TGI [31] of 8.21 µM and a GI50 [32] of 0.576 µM. The TGI [32] was 3.98 µM, the GI50 [33] was 2.63 µM and the TGI [33] was 15.2 µM. The GI50 [34] was 2.82 µM, the TGI [34] was 35 µM and the GI50 [35] was 3.61 µM. It also gave a TGI [35] of 28.5 µM, a GI50 [36] of 2.03 µM and a TGI [36] of 8.43 µM. The GI50 [37] was 2.86 µM, the TGI [37] was 8.76 µM and the GI50 [38] was 1.7 µM. It also gave a TGI [38] of 7.05 µM, a GI50 [39] of 1.48 µM and a TGI [39] of 3.47 µM. For the same molecule, the GI50 [40] was 2.37 µM, the TGI [40] was 15 µM and the GI50 [41] was 1.82 µM. It also gave a TGI [41] of 3.82 µM, a GI50 [42] of 2.2 µM and a TGI [42] of 8.17 µM. It also gave a GI50 [43] of 1.04 µM, a TGI [43] of 2.91 µM and a GI50 [44] of 1.85 µM. It also gave a TGI [44] of 6.79 µM, a GI50 [45] of 0.49 µM and a TGI [45] of 1.88 µM. For the same molecule, the GI50 [46] was 1.45 µM, the TGI [46] was 4.12 µM and the GI50 [47] was 1.91 µM. It also gave a TGI [47] of 8.29 µM, a GI50 [48] of 2.03 µM and a TGI [48] of 31.1 µM. For the same molecule, the GI50 [49] was 1.93 µM, the TGI [49] was 7.02 µM and the GI50 [50] was 0.555 µM. The TGI [50] was 4.07 µM, the GI50 [51] was 2.03 µM and the TGI [51] was 4.96 µM. For the same molecule, the GI50 [52] was 1.79 µM, the TGI [52] was 6.21 µM and the GI50 [53] was 3.86 µM. For the same molecule, the TGI [53] was 8.4 µM, the GI50 [54] was 2.06 µM and the TGI [54] was 10.7 µM. For the same molecule, the GI50 [55] was 1.6 µM, the TGI [55] was 4.96 µM and the GI50 [56] was 0.582 µM. The TGI [56] was 2.51 µM, the GI50 [57] was 2.54 µM and the TGI [57] was 9.57 µM.
